Assay results taken from patent US12297194B2, “N2-phenylpyrimidine-2,4-diamine compounds, and preparation methods and methods of use thereof” (BRIDGE BIOTHERAPEUTICS, INC., priority 2021, dated 2025).

How the values were obtained:
Type in all cases: cell-based, murine
[1] = target: Ba/F3 EGFR L858R/C797S mutants (Homo sapiens, UniProt P00533, C797S/L858R, cells depend on it); experiment: CellTiter-Glo cell viability, Ba/F3 EGFR L858R/C797S cells; settings: 72 hours, read-out: Ba/F3 EGFR mutant cell (IC50, nM) L/C
Summary of the method: (§1)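 Steps: seed 2500 Ba/F3 cells per well; after 24 h add compound, 0, 0.3, 0.9, 2.7, 8.2, 24.7, 74.1, 222.2, 666.7, 2000 nM; incubate 72 h; equilibrate 30 min at ambient temperature; add CellTiter-Glo, shake 10 min; read luminescence; derive IC50.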

[2] = target: Ba/F3 EGFR Del19/C797S mutants (Homo sapiens, UniProt P00533, C797S, cells depend on it, form not given); experiment: CellTiter-Glo cell viability, Ba/F3 EGFR Del19/C797S cells; settings: 72 hours, read-out: Ba/F3 EGFR mutant cell (IC50, nM) D/C
Summary of the method: as §1

Ba/F3 EGFR Wild-type = Ba/F3 EGFR Wild-type (Homo sapiens, UniProt P00533); experiment: CellTiter-Glo cell viability, Ba/F3 EGFR wild-type cells; settings: 72 hours, read-out: Ba/F3 EGFR mutant cell (IC50, nM) WT
Summary of the method: as §1

[3] = target: Ba/F3 EGFR L858R/T790M/C797S mutants (Homo sapiens, UniProt P00533, T790M/C797S/L858R, cells depend on it); experiment: CellTiter-Glo cell viability, Ba/F3 EGFR L858R/T790M/C797S cells; settings: 72 hours, read-out: Ba/F3 EGFR mutant cell (IC50, nM) L/T/C
Summary of the method: as §1

[4] = target: Ba/F3 EGFR Del19/T790M/C797S mutants (Homo sapiens, UniProt P00533, T790M/C797S, cells depend on it, form not given); experiment: CellTiter-Glo cell viability, Ba/F3 EGFR Del19/T790M/C797S cells; settings: 72 hours, read-out: Ba/F3 EGFR mutant cell (IC50, nM) D/T/C
Summary of the method: as §1

[5] = target: Ba/F3 EGFR Del19/T790M mutants (Homo sapiens, UniProt P00533, T790M, cells depend on it, form not given); experiment: CellTiter-Glo cell viability, Ba/F3 EGFR Del19/T790M cells; settings: 72 hours, read-out: Ba/F3 EGFR mutant cell (IC50, nM) D/T
Summary of the method: as §1

Sequence of Ba/F3 EGFR Del19/C797S mutants (P00533 with tags, fused parts or gaps DEL746-750/C797S, form open): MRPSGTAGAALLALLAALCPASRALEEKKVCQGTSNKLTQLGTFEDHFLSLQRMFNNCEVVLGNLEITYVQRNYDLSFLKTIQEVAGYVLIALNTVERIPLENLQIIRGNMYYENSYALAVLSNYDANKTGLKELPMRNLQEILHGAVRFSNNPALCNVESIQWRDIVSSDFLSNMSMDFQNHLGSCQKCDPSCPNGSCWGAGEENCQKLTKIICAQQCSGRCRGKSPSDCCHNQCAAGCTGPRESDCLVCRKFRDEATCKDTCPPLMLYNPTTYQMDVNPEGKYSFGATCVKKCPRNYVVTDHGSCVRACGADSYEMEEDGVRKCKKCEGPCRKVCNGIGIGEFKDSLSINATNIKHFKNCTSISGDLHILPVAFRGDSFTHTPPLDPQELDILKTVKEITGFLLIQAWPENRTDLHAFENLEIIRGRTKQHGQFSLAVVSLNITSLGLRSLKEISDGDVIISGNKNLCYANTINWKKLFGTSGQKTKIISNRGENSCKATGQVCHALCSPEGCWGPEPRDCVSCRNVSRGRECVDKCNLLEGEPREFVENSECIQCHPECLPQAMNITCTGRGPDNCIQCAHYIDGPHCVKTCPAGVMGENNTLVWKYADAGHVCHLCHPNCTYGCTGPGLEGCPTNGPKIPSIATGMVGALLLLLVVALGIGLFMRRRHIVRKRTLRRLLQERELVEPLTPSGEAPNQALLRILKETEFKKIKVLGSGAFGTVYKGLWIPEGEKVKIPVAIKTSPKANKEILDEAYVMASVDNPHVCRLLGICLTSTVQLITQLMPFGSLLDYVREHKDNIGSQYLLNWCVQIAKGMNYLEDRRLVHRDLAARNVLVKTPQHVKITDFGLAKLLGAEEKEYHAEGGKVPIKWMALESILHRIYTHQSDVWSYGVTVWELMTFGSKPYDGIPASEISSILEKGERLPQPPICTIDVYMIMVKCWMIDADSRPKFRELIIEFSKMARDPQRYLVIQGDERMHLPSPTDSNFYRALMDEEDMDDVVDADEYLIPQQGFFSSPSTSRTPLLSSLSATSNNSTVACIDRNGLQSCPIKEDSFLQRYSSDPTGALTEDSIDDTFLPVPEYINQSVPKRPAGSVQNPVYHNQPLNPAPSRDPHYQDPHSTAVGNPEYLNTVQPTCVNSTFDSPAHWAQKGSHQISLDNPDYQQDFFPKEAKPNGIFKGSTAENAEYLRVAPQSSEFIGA
Sequence of Ba/F3 EGFR Del19/T790M/C797S mutants (P00533 with tags, fused parts or gaps DEL746-750/T790M/C797S, form open): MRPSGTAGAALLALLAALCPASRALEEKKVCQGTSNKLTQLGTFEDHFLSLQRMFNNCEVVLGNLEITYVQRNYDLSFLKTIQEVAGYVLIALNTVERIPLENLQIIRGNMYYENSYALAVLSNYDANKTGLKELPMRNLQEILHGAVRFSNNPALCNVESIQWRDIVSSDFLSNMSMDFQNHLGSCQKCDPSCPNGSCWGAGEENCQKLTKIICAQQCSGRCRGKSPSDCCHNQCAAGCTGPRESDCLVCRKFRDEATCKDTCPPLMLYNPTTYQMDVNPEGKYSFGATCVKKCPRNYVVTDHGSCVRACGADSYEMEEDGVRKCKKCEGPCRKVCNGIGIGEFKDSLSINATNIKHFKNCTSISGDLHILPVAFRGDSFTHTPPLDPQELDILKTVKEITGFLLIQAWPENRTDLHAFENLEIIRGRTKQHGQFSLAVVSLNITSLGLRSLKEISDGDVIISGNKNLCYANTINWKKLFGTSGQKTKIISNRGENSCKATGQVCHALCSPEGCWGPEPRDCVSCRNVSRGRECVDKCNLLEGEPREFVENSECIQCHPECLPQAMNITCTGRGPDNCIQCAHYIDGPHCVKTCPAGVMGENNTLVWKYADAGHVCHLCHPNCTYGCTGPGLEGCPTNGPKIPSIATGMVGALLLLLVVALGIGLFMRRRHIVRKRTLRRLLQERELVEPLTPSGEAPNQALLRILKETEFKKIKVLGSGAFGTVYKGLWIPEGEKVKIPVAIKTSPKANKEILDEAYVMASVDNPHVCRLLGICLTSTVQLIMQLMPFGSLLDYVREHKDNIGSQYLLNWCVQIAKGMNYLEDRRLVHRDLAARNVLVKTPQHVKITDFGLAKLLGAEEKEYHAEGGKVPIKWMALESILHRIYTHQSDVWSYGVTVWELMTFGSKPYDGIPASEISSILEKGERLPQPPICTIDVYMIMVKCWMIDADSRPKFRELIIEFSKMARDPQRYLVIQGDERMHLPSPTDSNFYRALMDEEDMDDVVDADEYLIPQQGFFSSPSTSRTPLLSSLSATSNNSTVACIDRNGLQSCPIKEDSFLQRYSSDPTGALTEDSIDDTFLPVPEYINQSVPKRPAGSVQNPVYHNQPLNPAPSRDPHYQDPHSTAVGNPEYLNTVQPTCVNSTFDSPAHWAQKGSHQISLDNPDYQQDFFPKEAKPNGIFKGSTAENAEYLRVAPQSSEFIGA
Sequence of Ba/F3 EGFR Del19/T790M mutants (P00533 with tags, fused parts or gaps DEL746-750/T790M, form open): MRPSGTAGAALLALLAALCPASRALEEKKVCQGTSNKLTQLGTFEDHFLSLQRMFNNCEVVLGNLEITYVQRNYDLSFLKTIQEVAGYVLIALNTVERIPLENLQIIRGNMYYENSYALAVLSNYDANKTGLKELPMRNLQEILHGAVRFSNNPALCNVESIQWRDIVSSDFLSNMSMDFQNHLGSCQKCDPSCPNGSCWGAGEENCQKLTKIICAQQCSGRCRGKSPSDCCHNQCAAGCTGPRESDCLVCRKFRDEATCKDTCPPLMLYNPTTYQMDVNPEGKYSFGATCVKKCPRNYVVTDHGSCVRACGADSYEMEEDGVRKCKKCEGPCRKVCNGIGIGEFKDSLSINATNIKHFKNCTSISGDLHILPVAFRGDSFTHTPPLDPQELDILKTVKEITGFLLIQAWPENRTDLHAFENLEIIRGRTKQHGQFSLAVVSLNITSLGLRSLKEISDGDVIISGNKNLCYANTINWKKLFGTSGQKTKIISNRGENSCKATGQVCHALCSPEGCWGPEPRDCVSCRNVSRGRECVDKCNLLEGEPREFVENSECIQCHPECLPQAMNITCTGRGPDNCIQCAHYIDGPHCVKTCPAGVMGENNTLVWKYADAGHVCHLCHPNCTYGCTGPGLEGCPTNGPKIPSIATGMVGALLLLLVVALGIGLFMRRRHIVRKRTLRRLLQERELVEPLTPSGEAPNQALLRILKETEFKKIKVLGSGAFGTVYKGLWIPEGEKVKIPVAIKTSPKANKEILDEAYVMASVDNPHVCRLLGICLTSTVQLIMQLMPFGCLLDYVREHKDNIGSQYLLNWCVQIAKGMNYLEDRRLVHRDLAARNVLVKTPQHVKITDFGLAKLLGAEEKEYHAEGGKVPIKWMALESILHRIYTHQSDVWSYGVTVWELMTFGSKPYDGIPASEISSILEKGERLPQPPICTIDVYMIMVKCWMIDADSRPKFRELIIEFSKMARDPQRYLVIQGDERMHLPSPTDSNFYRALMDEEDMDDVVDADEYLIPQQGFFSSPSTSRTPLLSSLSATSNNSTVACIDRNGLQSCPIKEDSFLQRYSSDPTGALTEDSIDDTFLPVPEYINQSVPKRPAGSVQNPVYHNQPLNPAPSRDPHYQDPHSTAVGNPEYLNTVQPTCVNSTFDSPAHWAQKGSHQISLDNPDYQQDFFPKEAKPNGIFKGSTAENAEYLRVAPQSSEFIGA
Sequence of Ba/F3 EGFR L858R/T790M/C797S mutants (P00533 whole entry T790M/C797S/L858R): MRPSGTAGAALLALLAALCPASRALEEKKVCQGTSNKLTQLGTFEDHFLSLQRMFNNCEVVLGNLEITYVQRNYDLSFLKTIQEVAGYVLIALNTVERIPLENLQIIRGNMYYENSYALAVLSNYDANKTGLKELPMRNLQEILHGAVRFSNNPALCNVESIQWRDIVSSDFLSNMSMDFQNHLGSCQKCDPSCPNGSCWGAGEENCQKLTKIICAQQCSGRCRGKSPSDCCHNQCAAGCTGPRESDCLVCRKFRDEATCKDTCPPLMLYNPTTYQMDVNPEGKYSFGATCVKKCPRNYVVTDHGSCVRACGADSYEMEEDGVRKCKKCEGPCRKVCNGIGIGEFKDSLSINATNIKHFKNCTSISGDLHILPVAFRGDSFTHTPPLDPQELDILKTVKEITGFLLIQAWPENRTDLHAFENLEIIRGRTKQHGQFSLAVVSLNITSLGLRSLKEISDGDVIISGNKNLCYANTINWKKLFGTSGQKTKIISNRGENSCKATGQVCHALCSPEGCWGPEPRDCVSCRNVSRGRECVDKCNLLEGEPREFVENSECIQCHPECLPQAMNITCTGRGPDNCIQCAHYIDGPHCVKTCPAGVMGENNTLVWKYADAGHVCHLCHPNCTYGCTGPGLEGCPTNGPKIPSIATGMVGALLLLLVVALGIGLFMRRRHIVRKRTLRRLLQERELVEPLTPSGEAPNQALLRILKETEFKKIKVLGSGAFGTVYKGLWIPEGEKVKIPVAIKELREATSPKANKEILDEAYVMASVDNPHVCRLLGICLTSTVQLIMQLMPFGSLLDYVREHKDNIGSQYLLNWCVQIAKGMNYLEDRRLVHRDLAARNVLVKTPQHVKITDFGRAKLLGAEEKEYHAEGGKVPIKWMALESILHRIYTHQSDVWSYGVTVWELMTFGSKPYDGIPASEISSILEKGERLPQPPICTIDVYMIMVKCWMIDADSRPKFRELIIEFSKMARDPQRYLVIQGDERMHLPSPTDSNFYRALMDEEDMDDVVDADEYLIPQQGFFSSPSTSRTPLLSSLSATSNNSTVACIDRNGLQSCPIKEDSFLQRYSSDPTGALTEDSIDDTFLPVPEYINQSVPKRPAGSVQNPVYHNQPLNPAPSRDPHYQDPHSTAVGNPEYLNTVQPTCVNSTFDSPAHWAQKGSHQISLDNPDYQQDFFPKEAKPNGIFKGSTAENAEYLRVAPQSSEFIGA

Row | Structure (SMILES) | GI50 [1] [nM] | GI50 [2] [nM] | GI50 (Ba/F3 EGFR Wild-type) [nM] | GI50 [3] [nM] | GI50 [4] [nM] | GI50 [5] [nM]
1 | CCc1cc(Nc2ncc(Cl)c(Nc3ccc(OC)c(OC)c3N(C)S(C)(=O)=O)n2)c(OC)cc1N1CCC(N2CCOCC2)CC1 [Example C32, N-(6-((5-chloro-2-((5-ethyl-2-methoxy-4-(4-morpholinopiperidin-1-yl)phenyl)amino)pyrimidin-4-yl)amino)-2,3-dimethoxyphenyl)-N-methylmethanesulfonamide] | 82 | 79 | 1920 | 191 | 46 | 176
2 | COc1cc(N2CCOCC2)c(C)cc1Nc1ncc(Br)c(Nc2ccc3nccnc3c2S(C)(=O)=O)n1 [Example D1, 5-bromo-N2-(2-methoxy-5-methyl-4-morpholinophenyl)-N4-(5-(methylsulfonyl)quinoxalin-6-yl)pyrimidine-2,4-diamine] | 1120 | 1010 | > 2000 | 536 | 959 | 477
3 | COc1cc(C2=CCNCC2)c(C)cc1Nc1ncc(Br)c(Nc2ccc3nccnc3c2NS(C)(=O)=O)n1 [Example D2] | 771 | 462 | 1430 | 330 | 710 | 342
4 | COc1cc(C2CCNCC2)ccc1Nc1ncc(Cl)c(Nc2ccc3nccnc3c2NC(C)=O)n1 [Example D3, N-(6-((5-chloro-2-((2-methoxy-4-(piperidin-4-yl)phenyl)amino)pyrimidin-4-yl)amino)quinoxalin-5-yl)acetamide] | 1030 | 378 | > 2000 | 1180 | 717 | 678
5 | COC(=O)Nc1c(Nc2nc(Nc3ccc(C4CCNCC4)cc3OC)ncc2Cl)ccc2nccnc12 [Example D4, methyl (6-((5-chloro-2-((2-methoxy-4-(piperidin-4-yl)phenyl)amino)pyrimidin-4-yl)amino)quinoxalin-5-yl)carbamate] | 1570 | 746 | > 2000 | > 2000 | 870 | 694
6 | CN[C@@H]1CN(c2ccc(Nc3ncc(Cl)c(Nc4ccc5nccnc5c4NS(C)(=O)=O)n3)c(OC)c2)C[C@H]1F [Example D5] | 680 | 595 | 1720 | 1320 | 699 | 466
7 | COc1cc(OC2CNC2)ccc1Nc1ncc(Cl)c(Nc2ccc3nccnc3c2NS(C)(=O)=O)n1 [Example D6, N-(6-((2-((4-(azetidin-3-yloxy)-2-methoxyphenyl)amino)-5-chloropyrimidin-4-yl)amino)quinoxalin-5-yl)methanesulfonamide] | 1130 | 706 | > 2000 | 1080 | 592 | 800
